ChEMBL document CHEMBL1201862, “PubChem BioAssay data set” (2004)
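All cell lines were grown in 96-well plates and treated with compound for 48 hours. GI50: concentration for 50% inhibition of growth.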 Activity calls are given as the source filed them. No stated cut-off is given here; in the data, active = GI50 up to about 1.1 µM and inactive = higher.

Tests used:
Experiment in all cases: NCI-60 cell line screen, 48 h
T47D = test system: T47D
KM12 = test system: KM12
U-251 = test system: U-251
LOX IMVI = test system: LOX IMVI
HT-29 = test system: HT-29
MDA-MB-231 = test system: MDA-MB-231
MDA-N = test system: MDA-N
HL-60 = test system: HL-60
SNB-19 = test system: SNB-19
HOP-62 = test system: HOP-62
COLO 205 = test system: COLO 205
CAKI-1 = test system: CAKI-1
EKVX = test system: EKVX
SF-268 = test system: SF-268
RXF 393 = test system: RXF 393
K562 = test system: K562
OVCAR-3 = test system: OVCAR-3
M14 = test system: M14
HCT-116 = test system: HCT-116

SMILES	GI50 (T47D)	GI50 (KM12)	GI50 (U-251)	GI50 (LOX IMVI)	GI50 (HT-29)	GI50 (MDA-MB-231)	GI50 (MDA-N)	GI50 (HL-60)	GI50 (SNB-19)	GI50 (HOP-62)	GI50 (COLO 205)	GI50 (CAKI-1)	GI50 (EKVX)	GI50 (SF-268)	GI50 (RXF 393)	GI50 (K562)	GI50 (OVCAR-3)	GI50 (M14)	GI50 (HCT-116)
O=C1OC(CCCN2CCCCC2)(c2ccccc2)CC12CCCC2 (centres undefined)	> 100 µM (inactive)	> 100 µM (inactive)	> 100 µM (inactive)	> 72.1 µM (inactive)	37.3 µM (inactive)	> 75.9 µM (inactive)	> 77.6 µM (inactive)	52.5 µM (inactive)	> 100 µM (inactive)	> 100 µM (inactive)	32.3 µM (inactive)	> 100 µM (inactive)	> 100 µM (inactive)	> 100 µM (inactive)	80 µM (inactive)	40.5 µM (inactive)	> 100 µM (inactive)	17.7 µM (inactive)	73.1 µM (inactive)
O=C(O)c1ccc(Nc2cnc3ccc(C(F)(F)F)cc3n2)cc1	6.07 µM (inactive)	16.5 µM (inactive)	24.7 µM (inactive)	12.1 µM (inactive)	17.1 µM (inactive)	19.5 µM (inactive)	17 µM (inactive)	5.4 µM (inactive)	18.8 µM (inactive)	16.1 µM (inactive)	17.2 µM (inactive)	14.4 µM (inactive)	38.2 µM (inactive)	31 µM (inactive)	12.6 µM (inactive)	20.9 µM (inactive)	28.2 µM (inactive)	38.6 µM (inactive)	20.1 µM (inactive)
CCOC(=O)c1sc(=S)n(-c2ccc(Cl)cc2)c1-n1cc(-c2ccccc2)c(C#N)c1N	13.1 µM (inactive)	> 100 µM (inactive)	15.2 µM (inactive)	43.5 µM (inactive)	51.6 µM (inactive)	17.6 µM (inactive)	50.8 µM (inactive)	34.2 µM (inactive)	19 µM (inactive)	3.13 µM (inactive)	> 100 µM (inactive)	> 100 µM (inactive)	22.5 µM (inactive)	2.72 µM (inactive)	15.4 µM (inactive)	44.4 µM (inactive)	13.7 µM (inactive)	53.1 µM (inactive)	26.1 µM (inactive)
CC(C)(C)NCc1cc(Nc2ccnc3cc(Cl)ccc23)cc(-c2ccc(Cl)cc2)c1O	3.27 µM (inactive)	3.5 µM (inactive)	2.59 µM (inactive)	2.17 µM (inactive)	1.87 µM (inactive)	3 µM (inactive)	1.68 µM (inactive)	1.97 µM (inactive)	4.44 µM (inactive)	2.06 µM (inactive)	1.81 µM (inactive)	2.99 µM (inactive)	3.72 µM (inactive)	3.48 µM (inactive)	1.79 µM (inactive)	1.04 µM (active)	2.66 µM (inactive)	2.18 µM (inactive)	2.08 µM (inactive)
CS(=O)(=O)C(=Cc1ccccc1Cl)S(C)(=O)=O	> 100 µM (inactive)	> 46.5 µM (inactive)	> 100 µM (inactive)	> 100 µM (inactive)	> 100 µM (inactive)	> 100 µM (inactive)	> 46.5 µM (inactive)	1.14 µM (inactive)	> 100 µM (inactive)	> 100 µM (inactive)	> 100 µM (inactive)	> 100 µM (inactive)	> 100 µM (inactive)	> 100 µM (inactive)	> 100 µM (inactive)	3.7 µM (inactive)	> 100 µM (inactive)	> 80.2 µM (inactive)	31.1 µM (inactive)
CC(=O)NCC1OC2COC(c3ccccc3)OC2C2N=C(c3ccccc3)OC12 (centres undefined)	19.1 µM (inactive)	40.4 µM (inactive)	> 100 µM (inactive)	79.6 µM (inactive)	34.8 µM (inactive)	> 100 µM (inactive)	39.1 µM (inactive)	26.7 µM (inactive)	> 100 µM (inactive)	> 100 µM (inactive)	30.7 µM (inactive)	> 100 µM (inactive)	38 µM (inactive)	81.1 µM (inactive)	41.7 µM (inactive)	32.6 µM (inactive)	76 µM (inactive)	60.8 µM (inactive)	38.4 µM (inactive)
CNc1nc2c(C)ccc3nc(N(C)C)[nH]c3c-2n1	46.6 µM (inactive)	39.4 µM (inactive)	58.3 µM (inactive)	31.7 µM (inactive)	30.7 µM (inactive)	43.6 µM (inactive)	33.8 µM (inactive)	26.9 µM (inactive)	15.3 µM (inactive)	43.7 µM (inactive)	26.7 µM (inactive)	65.5 µM (inactive)	30.1 µM (inactive)	32.4 µM (inactive)	25.7 µM (inactive)	12.8 µM (inactive)	82.2 µM (inactive)	25.4 µM (inactive)	38.9 µM (inactive)
CSC1=C(C)S/C(=C\c2ccc(/C=C3\SC(C)=C(SC)S3)cc2)S1	> 100 µM (inactive)	> 100 µM (inactive)	79.8 µM (inactive)	> 100 µM (inactive)	> 100 µM (inactive)	> 100 µM (inactive)	> 100 µM (inactive)	> 100 µM (inactive)	> 100 µM (inactive)	33.5 µM (inactive)	> 100 µM (inactive)	> 100 µM (inactive)	> 100 µM (inactive)	> 100 µM (inactive)	21.6 µM (inactive)	> 100 µM (inactive)	> 100 µM (inactive)	> 100 µM (inactive)	> 100 µM (inactive)
CC(=O)NNC1=NN(C(C)=O)C2(S1)C(=O)Nc1ccc(C)cc12 (centres undefined)	23 µM (inactive)	57.7 µM (inactive)	41.7 µM (inactive)	> 100 µM (inactive)	> 100 µM (inactive)	80.2 µM (inactive)	> 100 µM (inactive)	38.3 µM (inactive)	52.5 µM (inactive)	35.3 µM (inactive)	> 100 µM (inactive)	73.6 µM (inactive)	78.9 µM (inactive)	> 100 µM (inactive)	44.9 µM (inactive)	48.3 µM (inactive)	> 100 µM (inactive)	> 100 µM (inactive)	> 100 µM (inactive)
C/C(=N\NC(=S)NC(C)(C)C)c1nc2cccnc2[nH]1	0.427 µM (active)	4.8 µM (inactive)	1.15 µM (inactive)	3.4 µM (inactive)	1.71 µM (inactive)	3.55 µM (inactive)	7.38 µM (inactive)	1.2 µM (inactive)	6.93 µM (inactive)	6.15 µM (inactive)	2.26 µM (inactive)	3.33 µM (inactive)	2.5 µM (inactive)	6.53 µM (inactive)	4.92 µM (inactive)	1.83 µM (inactive)	0.384 µM (active)	3.33 µM (inactive)	3.59 µM (inactive)
CCOC(=O)C(C)c1nc2ccc(C(F)(F)F)cc2[nH]c1=O (centres undefined)	23.8 µM (inactive)	71.9 µM (inactive)	> 100 µM (inactive)	66.2 µM (inactive)	51.6 µM (inactive)	77.1 µM (inactive)	64.1 µM (inactive)	44.8 µM (inactive)	> 100 µM (inactive)	> 100 µM (inactive)	> 100 µM (inactive)	> 10 µM (inactive)	43.1 µM (inactive)	87.1 µM (inactive)	64.3 µM (inactive)	48.5 µM (inactive)	28 µM (inactive)	80 µM (inactive)	72.8 µM (inactive)
